Each structure is given as a SMILES string. pIC50: −log10 of the molar value.

The target in the experiment is T1, PDK1 kinase (Homo sapiens, UniProt O15530).
T1 construct: 6x Histidine tag (TEV-cleavable) (cleaved yes); made in house; host or cells: Sf9 insect cells
T1 sequence (O15530 1-556): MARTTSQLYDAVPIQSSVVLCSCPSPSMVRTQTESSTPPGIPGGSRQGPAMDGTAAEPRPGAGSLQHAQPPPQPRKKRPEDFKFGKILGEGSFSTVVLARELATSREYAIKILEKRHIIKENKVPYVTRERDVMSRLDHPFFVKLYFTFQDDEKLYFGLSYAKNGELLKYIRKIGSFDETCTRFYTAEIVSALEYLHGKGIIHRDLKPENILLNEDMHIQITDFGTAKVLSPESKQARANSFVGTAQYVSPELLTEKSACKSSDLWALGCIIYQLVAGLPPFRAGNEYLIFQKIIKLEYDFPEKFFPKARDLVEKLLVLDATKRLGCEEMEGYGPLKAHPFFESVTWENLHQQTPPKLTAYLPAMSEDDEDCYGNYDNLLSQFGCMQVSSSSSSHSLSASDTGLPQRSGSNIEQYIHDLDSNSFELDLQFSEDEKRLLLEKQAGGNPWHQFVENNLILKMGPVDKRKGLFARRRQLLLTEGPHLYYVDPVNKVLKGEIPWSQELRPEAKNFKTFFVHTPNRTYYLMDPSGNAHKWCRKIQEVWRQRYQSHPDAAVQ
Put plainly: PDK1 Bioassay (luminescence-based enzyme assay, Kinase-Glo). It counts as biochemical. The following applies: 5 μM ATP. The text has this: In addition to the c-Abl PK/LDH coupled assay (above), homogeneous luminescence-based inhibitor screening assays were developed for c-Abl, MET, AurA, and PDK1 kinases (among others). Each of these assays made use of an ATP depletion assay (Kinase-Glo™, Promega Corporation, Madison, Wis.) to quantitate kinase activity. The Kinase-Glo™ format uses a thermostable luciferase to generate luminescent signal from ATP remaining in solution following the kinase reaction. The luminescent signal is inversely correlated with the amount of kinase activity.
Materials: PDKtide peptide substrate=KTFCGTPEYLAPEVRREPRJLSEEEQEMFRDFDYIADWC (SEQ ID NO:3) (Upstate Cat#12-401), ATP (Sigma Cat#A-3377, FW=551), HEPES buffer, pH 7.5, 10% Brij 35 (Calbiochem Cat#203728), MgCl2, Staurosporine (Streptomyces sp. Sigma Cat#85660-1MG), white Costar 384-well flat-bottom plate (VWR Cat#29444-088), PDK1 kinase (see below), Kinase-Glo™ (Promega Cat#V6712).
Stock Solutions: 1 mM PDKtide substrate (1 mg in 200 μl, as supplied by Upstate), stored at −20° C.; 100 mM HEPES buffer, pH 7.5 (5 ml 1M HEPES stock+45 ml miliQH2O); 10 mM ATP (5.51 mg/ml in dH2O) stored at −20° C. (diluted 25 μl into total of 10 ml miliQH2O daily=25 μM ATP working stock); 100 mM MgCl2; 10% Brij 35 stored at 2-8° C.; 200 μM Staurosporine, 2× Kinase-Glo™ reagent (made fresh or stored at −20° C.).
Standard Assay Setup for 384-well format (20 μl kinase reaction, 40 μl detection reaction): 10 mM MgCl2; 0.01 mM PDKtide; 1 μl test compound (in DMSO); 0.1 μg/ml PDK1 kinase; 5 μM ATP; 10 mM MgCl2; 100 mM HEPES+0.01% Brij buffer. Positive controls contained DMSO with no test compound. Negative controls contained 10 μM staurosporine. The kinase reactions were initiated at time t=0 by the addition of ATP. Kinase reactions were incubated at 21° C. for 40 min, then 20 μl of Kinase-Glo™ reagent were added to each well to quench the kinase reaction and initiate the luminescence reaction. After a 20 min incubation at 21° C., the luminescence was detected in a plate-reading luminometer.
Cell pellets produced from 6 L of Sf9 insect cells expressing human PDK1 were resuspended in a buffer containing 50 mM Tris-HCl pH 7.7 and 250 mM NaCl in a volume of approximately 40 mL per 1 L of original culture. One tablet of Roche Complete, EDTA-free protease inhibitor cocktail (Cat# 1873580) and 85 units Benzonase (Novagen Cat#70746-3)) were added per 1 L of original culture. The suspension was stirred for 1 hour at 4° C. Debris was removed by centrifugation for 30 minutes at 39,800×g at 4° C. The supernatant was decanted into a 500 mL beaker and 10 ml of a 50% slurry of Qiagen Ni-NTA Agarose (Cat#30250) that had been pre-equilibrated in 50 mM Tris-HCl pH 7.8, 500 mM NaCl, 10% Glycerol, 10 mM Imidazole, and 10 mM Methionine, were added and stirred for 30 minutes at 4° C. The sample was then poured into a drip column at 4° C. and washed with 10 column volumes of 50 mM Tris-HCl pH 7.8, 500 mM NaCl, 10% Glycerol, 10 mM Imidazole, and 10 mM Methionine. The protein was eluted using a step gradient with two column volumes each of the same buffer containing 50 mM, and 500 mM Imidazole, sequentially. The 6×Histidine tag was cleaved overnight using 40 units of TEV protease (Invitrogen Cat#10127017) per 1 mg of protein while dialyzing in 50 mM Tris-HCl pH 7.8, 500 mM NaCl, 10% Glycerol, 10 mM Imidazole, and 10 mM Methionine at 4° C. The 6× Histidine tag was removed by passing the sample over a Pharmacia 5 ml IMAC column (Cat# 17-0409-01) charged with Nickel and equilibrated in 50 mM Tris-HCl pH 7.8, 500 mM NaCl, 10% Glycerol, 10 mM Imidazole, and 10 mM Methionine. The cleaved protein eluted in the flow-through, whereas the uncleaved protein and the His-tag remained bound to the Ni-column. The cleaved protein fractions were combined and concentrated using spin concentrators. […]
Background: Kinase-Glo reads ATP consumption through a luciferase reaction.
Take `COc1ccccc1-c1c[nH]c2ncc(-c3ccc(S(N)(=O)=O)s3)cc12` [AE11]: the pIC50 was 5.30 to 6.00. The same measure for `CNC(=O)c1cc(-c2cnc3[nH]cc(-c4ccccc4OC)c3c2)cs1` [AE2]: 5.30 to 6.00; for `COc1cc(-c2cnc3[nH]cc(-c4ccc(O)cc4)c3c2)ccc1O` [AE58]: over 6.00. The same measure for `COc1ccccc1-c1c[nH]c2ncc(-c3ccc(S(N)(=O)=O)cc3)cc12` [AE21]: 5.30 to 6.00; for `Oc1cccc(-c2cnc3[nH]cc(-c4ccc(O)c(F)c4)c3c2)c1` [AE48]: 5.30 to 6.00.

Molecule `Oc1cccc(-c2cnc3[nH]cc(-c4ccn[nH]4)c3c2)c1` [AE49] showed a pIC50 of 5.30 to 6.00. The same measure for `COc1ccccc1-c1c[nH]c2ncc(-c3ccc4[nH]cc(CC(=O)O)c4c3)cc12` [AE10]: 5.30 to 6.00; for `COc1ccccc1-c1c[nH]c2ncc(-c3cc[nH]c(=O)c3)cc12` [AE9]: 5.30 to 6.00.

Take `COc1ccccc1-c1c[nH]c2ncc(-c3csc(C(=O)N(C)C)c3)cc12` [AE3]: the pIC50 was 5.30 to 6.00. Take `Nc1nc(-c2c[nH]c3ncc(-c4ccc5[nH]ccc5c4)cc23)cs1` [AE55]: the pIC50 is over 6.00. The same measure for `COc1cc(-c2cnc3[nH]cc(-c4ccccc4OC)c3c2)ccc1O` [AE64]: 5.30 to 6.00; for `N#Cc1cc(-c2cnc3[nH]cc(-c4ccc5[nH]ccc5c4)c3c2)ccc1O` [AE20]: 5.30 to 6.00.

In general, pIC50 refers to the negative decadic logarithm of the IC50, by convention in mol/L.

Source of the values: patent US7709645B2, “Pyrrolo-pyridine kinase modulators” (SGX Pharmaceuticals, Inc., priority 2004, dated 2010).
